PubChem BioAssay AID248 (DTP/NCI, 2004)
Several values for one entry are separate records, joined by “and”; a condition that tells them apart may be missing. Equal entries are not always repeated. Toxic doses and inconclusive results are not listed. Rule as the data show it: active = T/C of 150% or more; inactive = T/C below 125%.

Tested on: L1210 leukemia ip in BDF1 mice, survival T/C
Experiment: NCI In Vivo Anticancer Drug Screen. Data for tumor model L1210 Leukemia (intraperitoneal) in B6D2F1 (BDF1) mice
Settings: endpoint: mean survival time, higher = longer survival
In short: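 Tumor was transplanted into mice, which were then dosed with test compound or vehicle alone. Survival was recorded for each group, and the treated figure was expressed relative to the control figure.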

[1] = dose: 100.0 mg/kg/injection, schedule: Q01DX009 (ip), vehicle: saline with Tween-80
[2] = dose: 100.0 mg/kg/injection, schedule: Q04DX003 (ip), vehicle: Klucel (hydroxypropylcellulose) (HPC)
[3] = dose: 200.0 mg/kg/injection, schedule: Q01DX009 (ip), vehicle: saline with Tween-80
[4] = dose: 200.0 mg/kg/injection, schedule: Q04DX003 (ip), vehicle: Klucel (hydroxypropylcellulose) (HPC)
[5] = dose: 400.0 mg/kg/injection, schedule: Q01DX009 (ip), vehicle: saline with Tween-80
[6] = dose: 100.0 mg/kg/injection, schedule: Q01DX001 (ip), vehicle: saline
[7] = dose: 200.0 mg/kg/injection, schedule: Q01DX001 (ip), vehicle: saline
[8] = dose: 25.0 mg/kg/injection, schedule: Q01DX009 (ip), vehicle: Klucel (hydroxypropylcellulose) (HPC)
[9] = dose: 50.0 mg/kg/injection, schedule: Q01DX009 (ip), vehicle: Klucel (hydroxypropylcellulose) (HPC)
[10] = dose: 100.0 mg/kg/injection, schedule: Q01DX009 (ip), vehicle: Klucel (hydroxypropylcellulose) (HPC)
[11] = dose: 200.0 mg/kg/injection, schedule: Q01DX009 (ip), vehicle: Klucel (hydroxypropylcellulose) (HPC)
[12] = dose: 400.0 mg/kg/injection, schedule: Q01DX009 (ip), vehicle: Klucel (hydroxypropylcellulose) (HPC)
[13] = dose: 400.0 mg/kg/injection, schedule: Q04DX003 (ip), vehicle: Klucel (hydroxypropylcellulose) (HPC)
[14] = dose: 400.0 mg/kg/injection, schedule: Q01DX001 (ip), vehicle: saline
[15] = dose: 75.0 mg/kg/injection, schedule: Q01DX001 (ip), vehicle: saline
[16] = dose: 150.0 mg/kg/injection, schedule: Q01DX001 (ip), vehicle: saline
[17] = dose: 100.0 mg/kg/injection, schedule: Q04DX003 (ip), vehicle: saline with Tween-80
[18] = dose: 200.0 mg/kg/injection, schedule: Q04DX003 (ip), vehicle: saline with Tween-80
[19] = dose: 400.0 mg/kg/injection, schedule: Q04DX003 (ip), vehicle: saline with Tween-80

Measured: T/C

CC(C)(C)/[N+]([O-])=[N+](\[O-])C(C)(C)C (tested in a mixture with another compound)
inactive: [1] 98 % of control | [2] 100 % of control | [3] 105 % of control | [4] 96 % of control | [5] 90 % of control

CC(=O)n1c2ccccc2c2nc3cnccc3nc21
inactive: dose: 16.0 mg/kg/injection, schedule: Q01DX005 (ip), vehicle: saline 97 % of control | dose: 32.0 mg/kg/injection, schedule: Q01DX005 (ip), vehicle: saline 97 % of control | dose: 64.0 mg/kg/injection, schedule: Q01DX005 (ip), vehicle: saline 107 % of control

COC1CCN(CCCn2c3ccccc3c3ccc(C(C)=O)cc32)CC1
inactive: [6] 97 % of control | [7] 105 % of control

CS(=O)(=O)OCOS(C)(=O)=O
inactive: dose: 12.5 mg/kg/injection, schedule: Q01DX009 (ip), vehicle: Klucel (hydroxypropylcellulose) (HPC) 104 % of control | dose: 12.5 mg/kg/injection, schedule: Q01DX009 (ip), vehicle: saline 96 % of control | [8] 101 % of control | dose: 25.0 mg/kg/injection, schedule: Q01DX009 (ip), vehicle: saline 100 % of control | [9] 120 % of control | dose: 50.0 mg/kg/injection, schedule: Q04DX002 (ip), vehicle: saline 119 % of control

O=C(CCl)NCC1(c2ccc(Cl)cc2)SC(CNC(=O)CCl)(c2ccc(Cl)cc2)S1 (stereo not given)
inactive: [1] 97 % of control | [3] 92 % of control | [5] 104 % of control

CC1=C2CCCC(=O)C2(C)CCC1=O (stereo not given)
inactive: dose: 100.0 mg/kg/injection, schedule: Q04DX002 (ip), vehicle: Klucel (hydroxypropylcellulose) (HPC) 107 % of control | dose: 200.0 mg/kg/injection, schedule: Q04DX002 (ip), vehicle: Klucel (hydroxypropylcellulose) (HPC) 96 % of control

COc1cc(CCl)cc(OC)c1OC
inactive: [10] 95 % of control | [2] 93 % of control | [11] 90 % of control | [4] 95 % of control | [12] 88 % of control | [13] 97 % of control

COc1cc(/C=C/[N+](=O)[O-])ccc1O
inactive: [8] 98 % of control | [9] 98 % of control | [10] 102 % of control and 103 % of control

O=P1(N(CCCl)CCCl)N(Cc2ccccc2)c2ccccc2N1Cc1ccccc1
inactive: dose: 100.0 mg/kg/injection, schedule: Q01DX001 (ip), vehicle: Klucel (hydroxypropylcellulose) (HPC) 102 % of control | [2] 102 % of control | dose: 200.0 mg/kg/injection, schedule: Q01DX001 (ip), vehicle: Klucel (hydroxypropylcellulose) (HPC) 94 % of control | [4] 98 % of control | dose: 400.0 mg/kg/injection, schedule: Q01DX001 (ip), vehicle: Klucel (hydroxypropylcellulose) (HPC) 100 % of control | [13] 101 % of control

CCOC(=O)C/C(=N\Nc1ccc([N+](=O)[O-])cc1[N+](=O)[O-])c1ccccc1
inactive: dose: 100.0 mg/kg/injection, schedule: Q04DX003 (ip), vehicle: saline sonified 96 % of control | dose: 200.0 mg/kg/injection, schedule: Q04DX003 (ip), vehicle: saline sonified 96 % of control | dose: 400.0 mg/kg/injection, schedule: Q04DX003 (ip), vehicle: saline sonified 91 % of control

O=C(O)CCN(c1ccccc1)S(=O)(=O)c1ccccc1
inactive: [6] 94 % of control | [7] 94 % of control | [14] 94 % of control

O=C(O)CCCCCN1C(=O)C2CC=CCC2C1=O (stereo not given)
inactive: dose: 6.0 mg/kg/injection, schedule: Q04DX002 (ip), vehicle: saline with Tween-80 106 % of control | dose: 12.5 mg/kg/injection, schedule: Q04DX002 (ip), vehicle: saline with Tween-80 91 % of control | dose: 25.0 mg/kg/injection, schedule: Q04DX002 (ip), vehicle: saline with Tween-80 98 % of control | dose: 50.0 mg/kg/injection, schedule: Q04DX002 (ip), vehicle: saline with Tween-80 102 % of control

OCC1OC(n2c3ccccc3c3ccccc32)C(O)C(O)C1O (stereo not given)
inactive: dose: 60.0 mg/kg/injection, schedule: Q04DX002 (ip), vehicle: DMSO 108 % of control | dose: 120.0 mg/kg/injection, schedule: Q04DX002 (ip), vehicle: DMSO 102 % of control

CNC(=O)Oc1cccc(N)c1
inactive: [15] 109 % of control | [16] 114 % of control

C/C(CSc1ncnc2nc[nH]c12)=N\NC(N)=S
inactive: dose: 50.0 mg/kg/injection, schedule: Q04DX003 (ip), vehicle: saline with Tween-80 101 % of control | [17] 95 % of control and 102 % of control | [18] 93 % of control | [19] 104 % of control

CCCCCCCCCCCCCCCCOc1ccc(C(=O)CC(=O)OC)cc1
inactive: [10] 93 % of control | dose: 100.0 mg/kg/injection, schedule: Q04DX003 (ip), vehicle: other 94 % of control | [11] 92 % of control | dose: 200.0 mg/kg/injection, schedule: Q04DX003 (ip), vehicle: other 101 % of control | [12] 92 % of control | dose: 400.0 mg/kg/injection, schedule: Q04DX003 (ip), vehicle: other 94 % of control

O=S(c1ccc(O)cc1)c1ccc(O)cc1
inactive: [17] 99 % of control | [18] 94 % of control | [19] 101 % of control

NCCCCC(=O)NC(CCCCNC(=O)OCc1ccccc1)C(=O)NCCCCC(=O)NC(CCCCNC(=O)OCc1ccccc1)C(=O)NCCCCC(=O)NC(CCCCNC(=O)OCc1ccccc1)C(=O)NCCCCC(=O)NC(CCCCNC(=O)OCc1ccccc1)C(=O)NCCCCC(=O)NC(CCCCNC(=O)OCc1ccccc1)C(=O)O (stereo not given)
inactive: [6] 90 % of control

O=S(=O)(/C=C\c1ccccc1)N1CCCc2ccccc21
inactive: [6] 106 % of control | dose: 100.0 mg/kg/injection, schedule: Q04DX003 (ip), vehicle: saline 98 % of control | [7] 98 % of control | dose: 200.0 mg/kg/injection, schedule: Q04DX003 (ip), vehicle: saline 102 % of control | [14] 101 % of control | dose: 400.0 mg/kg/injection, schedule: Q04DX003 (ip), vehicle: saline 98 % of control

CC(=O)OCC1OC(Oc2ncc(C)c(=O)[nH]2)C(Nc2ccc([N+](=O)[O-])cc2[N+](=O)[O-])C(OC(C)=O)C1OC(C)=O (stereo not given)
inactive: dose: 50.0 mg/kg/injection, schedule: Q01DX001 (ip), vehicle: carboxymethylcellulose (CMC) 100 % of control | dose: 100.0 mg/kg/injection, schedule: Q01DX001 (ip), vehicle: carboxymethylcellulose (CMC) 97 % of control | dose: 200.0 mg/kg/injection, schedule: Q01DX001 (ip), vehicle: carboxymethylcellulose (CMC) 103 % of control | dose: 400.0 mg/kg/injection, schedule: Q01DX001 (ip), vehicle: carboxymethylcellulose (CMC) 92 % of control

O=C1/C(=C/c2ccccc2)CCC2C1CCCC21OCCO1 (stereo not given)
inactive: [15] 97 % of control | dose: 75.0 mg/kg/injection, schedule: Q04DX003 (ip), vehicle: saline 100 % of control | [16] 95 % of control | dose: 150.0 mg/kg/injection, schedule: Q04DX003 (ip), vehicle: saline 103 % of control | dose: 300.0 mg/kg/injection, schedule: Q01DX001 (ip), vehicle: saline 107 % of control | dose: 300.0 mg/kg/injection, schedule: Q04DX003 (ip), vehicle: saline 101 % of control
